Assay results from ChEMBL document CHEMBL2434836, “Studies on substituted benzo[h]quinazolines, benzo[g]indazoles, pyrazoles, 2,6-diarylpyridines as anti-tubercular agents” (Bioorg Med Chem Lett, 2013).

System: Mycobacterium tuberculosis
Test: Antitubercular activity against Mycobacterium tuberculosis H37Rv assessed as growth inhibition by micro plate alamar blue assay
Assay type: functional

| Compound | MIC |
| --- | --- |
| CCOC(=O)/C(C#N)=C(\CC(=O)c1ccccc1)N1CCCCC1 | > 200 µM |
| COc1ccc2c(c1)CCc1c(-c3ccc(OCCCC(=O)NN)cc3)nc(N)nc1-2 | 200 µM |
| CN(C)/C=C(\C#N)c1cc(-c2ccccc2)[nH]n1 | 200 µM |
| COc1ccc2c(c1)CCc1c(-c3ccc(OCCN4CCCCC4)cc3)nc(N)nc1-2 | 50 µM |
| COc1ccc(-c2cc3ccnc(-c4ccccc4)n3n2)cc1 | > 200 µM |
| O=c1nc2ccccn2cc1-c1cc(-c2ccccc2)[nH]n1 | > 200 µM |
| N#Cc1c(N2CCCCC2)cc(-c2ccc(Cl)cc2)nc1-c1ccccc1 | > 200 µM |
| COc1ccc2c(c1)CCc1c(-c3ccc(OCCN4CCCC4)cc3)nc(N)nc1-2 | 200 µM |
| N#CCc1cc(-c2ccc(Br)cc2)[nH]n1 | 25 µM |
| Cc1ccc(-c2cc(N3CCOCC3)c(C#N)c(-c3ccccc3)n2)cc1 | > 200 µM |
| COc1ccc2c(c1)CCC1C2=NN(C(C)=O)C1c1ccc(OCCN2CCCCC2)cc1 (configuration not stated) | > 200 µM |
| COc1ccc2c(c1)CCC1C2=NN(C(C)=O)C1c1ccc(O)cc1 (configuration not stated) | > 200 µM |
| COc1ccc2c(c1)CCc1c(-c3ccc(OCCCCCC(=O)NN)cc3)nc(N)nc1-2 | 200 µM |
| NNC(=O)c1ccncc1 [ISONIAZID] | 0.2 µM |
| CO[C@H]1/C=C/O[C@@]2(C)Oc3c(C)c(O)c4c(O)c(c(/C=N/N5CCN(C)CC5)c(O)c4c3C2=O)NC(=O)/C(C)=C\C=C\[C@H](C)[C@H](O)[C@@H](C)[C@@H](O)[C@@H](C)[C@H](OC(C)=O)[C@@H]1C [RIFAMPIN] | 2 µM |
| COc1ccc2c(c1)CCc1c(-c3ccc(OC(C)CN(C)C)cc3)nc(N)nc1-2 (configuration not stated) | 200 µM |
| COc1ccc2c(c1)CCC1C2=NN(C(C)=O)C1c1ccc(OCCN(C)C)cc1 (configuration not stated) | 200 µM |
| COc1ccc2c(c1)CCC1C2=NN(C(C)=O)C1c1ccc(OCCN2CCCC2)cc1 (configuration not stated) | 200 µM |
| CN(C)/C=C(\C#N)c1cc(-c2ccc(Cl)cc2)[nH]n1 | > 200 µM |
| N#Cc1c(N2CCCCC2)cc(-c2ccc(Br)cc2)nc1-c1ccccc1 | > 200 µM |
| COc1ccc(-c2cc(/C(C#N)=C/N(C)C)n[nH]2)cc1 | 100 µM |

| Compound | MIC |
| --- | --- |
| Cc1ccc(-c2cc(N3CCCCC3)c(C#N)c(-c3ccccc3)n2)cc1 | > 200 µM |
| CN(C)/C=C(\C#N)c1cc(-c2ccc(Br)cc2)[nH]n1 | > 200 µM |
| Cc1ccc(-c2cc(CC#N)n[nH]2)cc1 | > 200 µM |
| COc1ccc(-c2cc(CC#N)n[nH]2)cc1 | 200 µM |
| CCOC(=O)CCCCCOc1ccc(-c2nc(N)nc3c2CCc2cc(OC)ccc2-3)cc1 | 200 µM |
| Cc1ccc(-c2cc(/C(C#N)=C/N(C)C)n[nH]2)cc1 | > 200 µM |
| CN[C@@H]1[C@H](O[C@H]2[C@H](O[C@H]3[C@H](O)[C@@H](O)[C@H](N=C(N)N)[C@@H](O)[C@@H]3N=C(N)N)O[C@@H](C)[C@]2(O)C=O)O[C@@H](CO)[C@H](O)[C@H]1O [STREPTOMYCIN] | 6 µM |
| COc1ccc2c(c1)CCc1c(-c3ccc(OCCCCC(=O)NN)cc3)nc(N)nc1-2 | 200 µM |
| CCSc1nc(Cl)c(C#N)c(-c2ccc(F)cc2F)n1 | 0.78 µg/mL |
| COc1ccc(-c2cc(N3CCCCC3)c(C#N)c(-c3ccccc3)n2)cc1 | > 200 µM |
| CCOC(=O)CCCCOc1ccc(-c2nc(N)nc3c2CCc2cc(OC)ccc2-3)cc1 | 200 µM |
| COc1ccc2c(c1)CCc1c(-c3ccc(OCCN(C)C)cc3)nc(N)nc1-2 | 100 µM |
| CC1=NN(C(=O)c2cc(-c3ccc(Cl)cc3)n[nH]2)C(=O)/C1=N/Nc1cccc(F)c1 | 0.35 µg/mL |
| COc1ccc2c(c1)CCc1c(-c3ccc(O)cc3)nc(N)nc1-2 | > 200 µM |
| N#CCc1cc(-c2ccc(Cl)cc2)[nH]n1 | > 200 µM |
| NC(=O)c1c(N2CCCCC2)cc(-c2ccc(Br)cc2)nc1-c1ccccc1 | > 200 µM |
| N#Cc1c(N2CCCCC2)cc(-c2ccccc2)nc1-c1ccccc1 | > 200 µM |
| CCN(CC)CCOc1ccc(C2C3CCc4cc(OC)ccc4C3=NN2C(C)=O)cc1 (configuration not stated) | 200 µM |
| COc1ccc2c(c1)CCC1C2=NN(C(C)=O)C1c1ccc(OC(C)CN(C)C)cc1 (configuration not stated) | 200 µM |
| CCOC(=O)CCCOc1ccc(-c2nc(N)nc3c2CCc2cc(OC)ccc2-3)cc1 | 50 µM |

System: not listed separately
Test: Cytotoxicity against human THP1 cells after 24 hrs by MTT assay
Assay type: cell-based, THP-1

| Compound | CC50 at 24 h [µM] |
| --- | --- |
| COc1ccc2c(c1)CCc1c(-c3ccc(OCCN4CCCCC4)cc3)nc(N)nc1-2 | 200 |
| N#CCc1cc(-c2ccc(Br)cc2)[nH]n1 | > 200 |
| COc1ccc(-c2cc(/C(C#N)=C/N(C)C)n[nH]2)cc1 | > 200 |
| COc1ccc2c(c1)CCc1c(-c3ccc(OCCN(C)C)cc3)nc(N)nc1-2 | 200 |
| CCOC(=O)CCCOc1ccc(-c2nc(N)nc3c2CCc2cc(OC)ccc2-3)cc1 | 200 |

System: not listed separately
Test: Safety index, ratio of CC50 for human THP1 cells to MIC for Mycobacterium tuberculosis H37Rv
Assay type: toxicity, cell-based, THP-1

| Compound | selectivity ratio |
| --- | --- |
| N#CCc1cc(-c2ccc(Br)cc2)[nH]n1 | 8 |
